Results published in patent US20020065219A1, “Water soluble thiazolyl peptide derivatives” (priority 2000, published 2002).
Converted amounts (≈) assume the structure as drawn. Read-outs that look alike come from different tables or passages of the source.

Assays:
Assay in all cases: MIC, broth micro dilution assay (NCCLS)
Format in all cases: cell-based
[1] = test system: Enterococcus faecalis A20688
[2] = test system: Streptococcus pneumoniae A28272
[3] = test system: Staphylococcus aureus A15090
[4] = Mueller-Hinton medium, 35° C., 18 hours
[5] = 50% Mueller-Hinton medium and 50% Todd Hewitt medium, 35° C., 18 hours

Row | Compound | MIC (μg/mL) against Enterococcus faecalis A20688 [1, 4] | MIC (μg/mL) against Streptococcus pneumoniae A28272 [2, 5] [µg/mL] | MIC (μg/mL) against Staphylococcus aureus A15090 [3, 4] [µg/mL] | MIC (μg/mL) against Enterococcus faecalis A20688 [1] [µg/mL] | MIC (μg/mL) against Streptococcus pneumoniae A28272 [2] [µg/mL] | MIC (μg/mL) against Staphylococcus aureus A15090 [3] [µg/mL]
1 | CO/C(C)=C1/NC(=O)C(C(C)O)NC(=O)c2csc(n2)-c2cc(O)c(-c3nc(C(=O)NC(CN4CCN(C(C)=O)CC4)C(N)=O)cs3)nc2-c2csc(n2)C2COC(=O)c3c4c5c(cccc5n3O)COC(=O)C(O[C@H]3C[C@](C)(O)[C@H](N(C)C)[C@H](C)O3)C(OC4)C(NC(=O)c3csc1n3)c1nc(cs1)C(=O)N2 (stereo partly drawn) [Example 21] | 2.0 µg/mL (≈ 1.28 µM) | 0.03 (≈ 0.0192 µM) | 0.5 (≈ 0.319 µM) |  |  | 
2 | CO/C(C)=C1/NC(=O)C(C(C)O)NC(=O)c2csc(n2)-c2cc(O)c(-c3nc(C(=O)NC(CN4CCN(c5ncccn5)CC4)C(N)=O)cs3)nc2-c2csc(n2)C2COC(=O)c3c4c5c(cccc5n3O)COC(=O)C(O[C@H]3C[C@](C)(O)[C@H](N(C)C)[C@H](C)O3)C(OC4)C(NC(=O)c3csc1n3)c1nc(cs1)C(=O)N2 (stereo partly drawn) [Example 22] |  |  |  | 1.0 (≈ 0.624 µM) | 0.0005 (≈ 0.000312 µM) | 0.5 (≈ 0.312 µM)
3 | CNCCN(C)CC(NC(=O)c1csc(-c2nc3c(cc2O)-c2nc(cs2)C(=O)NC(C(C)O)C(=O)N/C(=C(\C)OC)c2nc(cs2)C(=O)NC2c4nc(cs4)C(=O)NC(COC(=O)c4c5c6c(cccc6n4O)COC(=O)C(O[C@H]4C[C@](C)(O)[C@H](N(C)C)[C@H](C)O4)C2OC5)c2nc-3cs2)n1)C(N)=O (stereo partly drawn) [Example 23] | 0.5 µg/mL (≈ 0.328 µM) | 0.001 (≈ 0.000655 µM) | 0.06 (≈ 0.0393 µM) |  |  | 
4 | CCN(CC)CCN(CCN(CC)CC)CC(NC(=O)c1csc(-c2nc3c(cc2O)-c2nc(cs2)C(=O)NC(C(C)O)C(=O)N/C(=C(\C)OC)c2nc(cs2)C(=O)NC2c4nc(cs4)C(=O)NC(COC(=O)c4c5c6c(cccc6n4O)COC(=O)C(O[C@H]4C[C@](C)(O)[C@H](N(C)C)[C@H](C)O4)C2OC5)c2nc-3cs2)n1)C(N)=O (stereo partly drawn) [Example 24] |  |  |  | 2.0 (≈ 1.21 µM) | 0.007 (≈ 0.00423 µM) | 1.0 (≈ 0.605 µM)
5 | CCNCCN(CC)CC(NC(=O)c1csc(-c2nc3c(cc2O)-c2nc(cs2)C(=O)NC(C(C)O)C(=O)N/C(=C(\C)OC)c2nc(cs2)C(=O)NC2c4nc(cs4)C(=O)NC(COC(=O)c4c5c6c(cccc6n4O)COC(=O)C(O[C@H]4C[C@](C)(O)[C@H](N(C)C)[C@H](C)O4)C2OC5)c2nc-3cs2)n1)C(N)=O (stereo partly drawn) [Example 25] | 2.0 µg/mL (≈ 1.29 µM) | 0.0005 (≈ 0.000322 µM) | 1.0 (≈ 0.644 µM) |  |  | 
6 | CO/C(C)=C1/NC(=O)C(C(C)O)NC(=O)c2csc(n2)-c2cc(O)c(-c3nc(C(=O)NC(CN(CCCN(C)C)CCCN(C)C)C(N)=O)cs3)nc2-c2csc(n2)C2COC(=O)c3c4c5c(cccc5n3O)COC(=O)C(O[C@H]3C[C@](C)(O)[C@H](N(C)C)[C@H](C)O3)C(OC4)C(NC(=O)c3csc1n3)c1nc(cs1)C(=O)N2 (stereo partly drawn) [Example 27] | 2.0 µg/mL (≈ 1.23 µM) | 0.0005 (≈ 0.000308 µM) | 4.0 (≈ 2.46 µM) |  |  | 
7 | CNCCNCC(NC(=O)c1csc(-c2nc3c(cc2O)-c2nc(cs2)C(=O)NC(C(C)O)C(=O)N/C(=C(\C)OC)c2nc(cs2)C(=O)NC2c4nc(cs4)C(=O)NC(COC(=O)c4c5c6c(cccc6n4O)COC(=O)C(O[C@H]4C[C@](C)(O)[C@H](N(C)C)[C@H](C)O4)C2OC5)c2nc-3cs2)n1)C(N)=O (stereo partly drawn) [Example 28] |  |  |  | 0.5 (≈ 0.331 µM) | 0.03 (≈ 0.0198 µM) | 0.25 (≈ 0.165 µM)
8 | CO/C(C)=C1/NC(=O)C(C(C)O)NC(=O)c2csc(n2)-c2cc(O)c(-c3nc(C(=O)NC(CN(C)Cc4ccccc4O[C@@H]4O[C@H](CO)[C@@H](O)[C@H](O)[C@H]4O)C(N)=O)cs3)nc2-c2csc(n2)C2COC(=O)c3c4c5c(cccc5n3O)COC(=O)C(O[C@H]3C[C@](C)(O)[C@H](N(C)C)[C@H](C)O3)C(OC4)C(NC(=O)c3csc1n3)c1nc(cs1)C(=O)N2 (stereo partly drawn) [Example 29] | 0.25 µg/mL (≈ 0.144 µM) | 0.015 (≈ 0.00864 µM) | 0.06 (≈ 0.0345 µM) |  |  | 
9 | CO/C(C)=C1/NC(=O)C(C(C)O)NC(=O)c2csc(n2)-c2cc(O)c(-c3nc(C(=O)NC(CN(C)CCN4CCCCC4)C(N)=O)cs3)nc2-c2csc(n2)C2COC(=O)c3c4c5c(cccc5n3O)COC(=O)C(O[C@H]3C[C@](C)(O)[C@H](N(C)C)[C@H](C)O3)C(OC4)C(NC(=O)c3csc1n3)c1nc(cs1)C(=O)N2 (stereo partly drawn) [Example 30] |  |  |  | 1.0 (≈ 0.633 µM) | 0.03 (≈ 0.019 µM) | 0.125 (≈ 0.0791 µM)
10 | CO/C(C)=C1/NC(=O)C(C(C)O)NC(=O)c2csc(n2)-c2cc(O)c(-c3nc(C(=O)NC(CN(C)CC(O)C(O)C(O)C(O)CO)C(N)=O)cs3)nc2-c2csc(n2)C2COC(=O)c3c4c5c(cccc5n3O)COC(=O)C(O[C@H]3C[C@](C)(O)[C@H](N(C)C)[C@H](C)O3)C(OC4)C(NC(=O)c3csc1n3)c1nc(cs1)C(=O)N2 (stereo partly drawn) [Example 31] | 1.0 µg/mL (≈ 0.612 µM) | 0.125 (≈ 0.0766 µM) | 0.125 (≈ 0.0766 µM) |  |  | 
11 | CO/C(C)=C1/NC(=O)C(C(C)O)NC(=O)c2csc(n2)-c2cc(O)c(-c3nc(C(=O)NC(CSCC(=O)OCc4ccccc4)C(N)=O)cs3)nc2-c2csc(n2)C2COC(=O)c3c4c5c(cccc5n3O)COC(=O)C(O[C@H]3C[C@](C)(O)[C@H](N(C)C)[C@H](C)O3)C(OC4)C(NC(=O)c3csc1n3)c1nc(cs1)C(=O)N2 (stereo partly drawn) [Example 34] | 1.0 µg/mL (≈ 0.617 µM) | 0.001 (≈ 0.000617 µM) | 1.0 (≈ 0.617 µM) |  |  | 
12 | CCOC(=O)CN1CCN(CC(NC(=O)c2csc(-c3nc4c(cc3O)-c3nc(cs3)C(=O)NC(C(C)O)C(=O)N/C(=C(\C)OC)c3nc(cs3)C(=O)NC3c5nc(cs5)C(=O)NC(COC(=O)c5c6c7c(cccc7n5O)COC(=O)C(O[C@H]5C[C@](C)(O)[C@H](N(C)C)[C@H](C)O5)C3OC6)c3nc-4cs3)n2)C(N)=O)CC1 (stereo partly drawn) [Example 36] | 0.25 µg/mL (≈ 0.155 µM) | 0.007 (≈ 0.00435 µM) | 0.06 (≈ 0.0373 µM) |  |  | 
13 | COC(C)=C1NC(=O)C(C(C)O)NC(=O)c2csc(n2)-c2cc(O)c(-c3nc(C(=O)NC(CN4CCC(O)C4)C(N)=O)cs3)nc2-c2csc(n2)C2COC(=O)c3c4c5c(cccc5n3O)COC(=O)C(OC3CC(C)(O)C(N(C)C)C(C)O3)C(OC4)C(NC(=O)c3csc1n3)c1nc(cs1)C(=O)N2 (stereo not drawn) [Example 37] | 0.125 µg/mL (≈ 0.082 µM) | 0.007 (≈ 0.00459 µM) | 0.06 (≈ 0.0394 µM) |  |  | 
14 | CO/C(C)=C1/NC(=O)C(C(C)O)NC(=O)c2csc(n2)-c2cc(O)c(-c3nc(C(=O)NC(CN4CCN(CC(=O)O)CC4)C(N)=O)cs3)nc2-c2csc(n2)C2COC(=O)c3c4c5c(cccc5n3O)COC(=O)C(O[C@H]3C[C@](C)(O)[C@H](N(C)C)[C@H](C)O3)C(OC4)C(NC(=O)c3csc1n3)c1nc(cs1)C(=O)N2 (stereo partly drawn) [Example 39] | 1.0 µg/mL (≈ 0.632 µM) | 0.03 (≈ 0.019 µM) | 1.0 (≈ 0.632 µM) |  |  | 
15 | CO/C(C)=C1/NC(=O)C(C(C)O)NC(=O)c2csc(n2)-c2cc(O)c(-c3nc(C(=O)NC(CSCCC(=O)O)C(N)=O)cs3)nc2-c2csc(n2)C2COC(=O)c3c4c5c(cccc5n3O)COC(=O)C(O[C@H]3C[C@](C)(O)[C@H](N(C)C)[C@H](C)O3)C(OC4)C(NC(=O)c3csc1n3)c1nc(cs1)C(=O)N2 (stereo partly drawn) [Example 40] | (4.0) μg/mL | 0.03 (≈ 0.0194 µM) | 1.0 (≈ 0.648 µM) |  |  | 
16 | CO/C(C)=C1/NC(=O)C(C(C)O)NC(=O)c2csc(n2)-c2cc(O)c(-c3nc(C(=O)NC(CN(C)CCCn4ccnc4)C(N)=O)cs3)nc2-c2csc(n2)C2COC(=O)c3c4c5c(cccc5n3O)COC(=O)C(O[C@H]3C[C@](C)(O)[C@H](N(C)C)[C@H](C)O3)C(OC4)C(NC(=O)c3csc1n3)c1nc(cs1)C(=O)N2 (stereo partly drawn) [Example 41] | 0.5 µg/mL (≈ 0.317 µM) | 0.125 (≈ 0.0793 µM) | 0.5 (≈ 0.317 µM) |  |  | 
17 | CO/C(C)=C1/NC(=O)C(C(C)O)NC(=O)c2csc(n2)-c2cc(O)c(-c3nc(C(=O)NC(CSC(CC(=O)O)C(=O)O)C(N)=O)cs3)nc2-c2csc(n2)C2COC(=O)c3c4c5c(cccc5n3O)COC(=O)C(O[C@H]3C[C@](C)(O)[C@H](N(C)C)[C@H](C)O3)C(OC4)C(NC(=O)c3csc1n3)c1nc(cs1)C(=O)N2 (stereo partly drawn) [Example 42] | 4.0 µg/mL (≈ 2.52 µM) | 0.25 (≈ 0.157 µM) | 4.0 (≈ 2.52 µM) |  |  | 
18 | COC(C)=C1NC(=O)C(C(C)O)NC(=O)c2csc(n2)-c2cc(O)c(-c3nc(C(=O)NC(CSCC(NC(C)=O)C(=O)O)C(N)=O)cs3)nc2-c2csc(n2)C2COC(=O)c3c4c5c(cccc5n3O)COC(=O)C(OC3CC(C)(O)C(N(C)C)C(C)O3)C(OC4)C(NC(=O)c3csc1n3)c1nc(cs1)C(=O)N2 (stereo not drawn) [Example 43] | 8.0 µg/mL (≈ 5 µM) | 0.125 (≈ 0.0781 µM) | 2.0 (≈ 1.25 µM) |  |  | 
19 | COC(C)=C1NC(=O)C(C(C)O)NC(=O)c2csc(n2)-c2cc(O)c(-c3nc(C(=O)NC(CSCC4NC(=O)NC4=O)C(N)=O)cs3)nc2-c2csc(n2)C2COC(=O)c3c4c5c(cccc5n3O)COC(=O)C(OC3CC(C)(O)C(N(C)C)C(C)O3)C(OC4)C(NC(=O)c3csc1n3)c1nc(cs1)C(=O)N2 (stereo not drawn) [Example 45] | 128 µg/mL (≈ 80.8 µM) | 0.03 (≈ 0.0189 µM) | 4.0 (≈ 2.53 µM) |  |  | 
20 | CO/C(C)=C1/NC(=O)C(C(C)O)NC(=O)c2csc(n2)-c2cc(O)c(-c3nc(C(=O)NC(CSCCS(=O)(=O)O)C(N)=O)cs3)nc2-c2csc(n2)C2COC(=O)c3c4c5c(cccc5n3O)COC(=O)C(O[C@H]3C[C@](C)(O)[C@H](N(C)C)[C@H](C)O3)C(OC4)C(NC(=O)c3csc1n3)c1nc(cs1)C(=O)N2 (stereo partly drawn) [Example 46] | 128 µg/mL (≈ 81 µM) | 0.06 (≈ 0.038 µM) | 4.0 (≈ 2.53 µM) |  |  | 
